According to patent US20140199690A1, “MATERIALS AND METHODS FOR HIGH-THROUGHPUT DETERMINATION OF GENOME-WIDE DNA METHYLATION PROFILE” (THE HONG KONG UNIVERSITY OF SCIENCE AND TECHNOLOGY, priority 2013, published 2014):

Tests used:
[1] = test system: murine embryonic fibroblasts cells; conditions: 5 μM aza-dC; cited from earlier work
HEK293T cells = assay: FPDM measurement of cellular DNA methylation after 5-aza-dC treatment; format: cell-based, human; conditions: 3 days, 100 ng DNA

In the case of `Nc1ncn([C@H]2C[C@H](O)[C@@H](CO)O2)c(=O)n1` [5-aza-dC, 5-aza-2′-deoxycytidine], the “hypomethylation relative to the untreated control” value [1] is listed as “about 42%”, the “cellular DNA methylation measured by FPDM, relative to untreated control” value (HEK293T cells; 5 μM 5-aza-dC) is listed as 67.73±0.53 % of control and the “cellular DNA methylation measured by FPDM, relative to untreated control” value (HEK293T cells; 10 μM 5-aza-dC) is listed as 45.16±8.84 % of control.
